According to ChEMBL document CHEMBL1126016, “Inhibitors of protein kinase C. 1. 2,3-Bisarylmaleimides” (J Med Chem, 1992):

Tests used:
[1] = Inhibition of calcium/calmodulin-dependent protein kinase
Phosphorylase kinase = test: Inhibition of phosphorylase kinase.; assay type: protein-complex assay

Compound: COC(=O)[C@@]1(O)C[C@H]2O[C@]1(C)n1c3ccccc3c3c4c(c5c6ccccc6n2c5c31)C(=O)NC4 (single isomer, unassigned) [K-252A]
- IC50 [1]: 270 nM
- IC50 (Phosphorylase kinase): 1.7 nM
